This passage reports T/C results from PubChem BioAssay AID248 (DTP/NCI, 2004).

This assay relates to L1210 leukemia ip in BDF1 mice, survival T/C. As to the kind of experiment: NCI In Vivo Anticancer Drug Screen. Data for tumor model L1210 Leukemia (intraperitoneal) in B6D2F1 (BDF1) mice. The settings on record: endpoint: mean survival time, higher = longer survival. The procedure, abridged:
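Value reflects the ratio of survival in compound-treated mice to survival in vehicle-treated controls, with both groups carrying the same transplanted tumor.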

The mark [1] stands for this setting: dose: 100.0 mg/kg/injection, schedule: Q01DX001 (ip), vehicle: carboxymethylcellulose (CMC).
The mark [2] stands for this setting: dose: 200.0 mg/kg/injection, schedule: Q01DX001 (ip), vehicle: carboxymethylcellulose (CMC).
The mark [3] stands for this setting: dose: 400.0 mg/kg/injection, schedule: Q01DX001 (ip), vehicle: carboxymethylcellulose (CMC).
Where [4] appears, read: dose: 50.0 mg/kg/injection, schedule: Q01DX001 (ip), vehicle: saline.
The mark [5] stands for this setting: dose: 100.0 mg/kg/injection, schedule: Q01DX001 (ip), vehicle: saline.
Setting [6] is: dose: 200.0 mg/kg/injection, schedule: Q01DX001 (ip), vehicle: saline.
Where [7] appears, read: dose: 400.0 mg/kg/injection, schedule: Q01DX001 (ip), vehicle: saline.
Where [8] appears, read: dose: 75.0 mg/kg/injection, schedule: Q01DX001 (ip), vehicle: saline.
Where [9] appears, read: dose: 5.0 mg/kg/injection, schedule: Q01DX001 (ip), vehicle: saline.
Where [10] appears, read: dose: 100.0 mg/kg/injection, schedule: Q04DX003 (ip), vehicle: saline.
The mark [11] stands for this setting: dose: 200.0 mg/kg/injection, schedule: Q04DX003 (ip), vehicle: saline.
Where [12] appears, read: dose: 400.0 mg/kg/injection, schedule: Q04DX003 (ip), vehicle: saline.

“And” between values parts separate entries of the source, which are not always exact repeats. Identical values can stand only once. Toxic doses and inconclusive results are not listed.

In the case of `Nc1nc(N)c(N=O)c(Nc2ccc(I)cc2)n1`, the T/C by setting is: (dose: 40.0 mg/kg/injection, schedule: Q01DX Z (ip), vehicle: carboxymethylcellulose (CMC)) 102 % of control; (dose: 50.0 mg/kg/injection, schedule: Q01DX009 (ip), vehicle: acetone) 108 % of control; (dose: 50.0 mg/kg/injection, schedule: Q04DX003 (ip), vehicle: carboxymethylcellulose (CMC)) 109 % of control; (dose: 60.0 mg/kg/injection, schedule: Q01DX Z (ip), vehicle: carboxymethylcellulose (CMC)) 104 % of control; (dose: 90.0 mg/kg/injection, schedule: Q01DX Z (ip), vehicle: carboxymethylcellulose (CMC)) 88 % of control; under setting [1], 101 % of control. The T/C reads like this: (dose: 100.0 mg/kg/injection, schedule: Q01DX009 (ip), vehicle: acetone) 106 % of control; (dose: 100.0 mg/kg/injection, schedule: Q04DX003 (ip), vehicle: carboxymethylcellulose (CMC)) 106 % of control; (dose: 135.0 mg/kg/injection, schedule: Q01DX Z (ip), vehicle: carboxymethylcellulose (CMC)) 89 % of control; under setting [2], 101 % of control; (dose: 200.0 mg/kg/injection, schedule: Q04DX003 (ip), vehicle: carboxymethylcellulose (CMC)) 96 % of control.
As to `CC1CCNCC1`, the T/C is, setting by setting: (dose: 100.0 mg/kg/injection, schedule: Q04DX002 (ip), vehicle: saline) 105 % of control; (dose: 200.0 mg/kg/injection, schedule: Q04DX002 (ip), vehicle: saline) 102 % of control; (dose: 400.0 mg/kg/injection, schedule: Q04DX002 (ip), vehicle: saline) 94 % of control.
As for `Clc1cccc(C2ON2C2CCCCC2)c1` (centres undefined), the T/C by setting is: under setting [1], 92 % of control; under setting [2], 100 % of control; under setting [3], 94 % of control.
Regarding `CCOc1ccc(Nc2ncnc3nc[nH]c23)cc1CN(CCCl)C(C)CCl` (centres undefined), the T/C is 112 % of control (dose: 1.0 mg/kg/injection, schedule: Q01DX Z (ip), vehicle: saline); 111 % of control (dose: 2.0 mg/kg/injection, schedule: Q01DX Z (ip), vehicle: saline); 97 % of control (dose: 4.0 mg/kg/injection, schedule: Q01DX Z (ip), vehicle: saline).
In the case of `COc1cccc(-c2ccc(N=N/C(=N/Nc3ccccc3)c3ccccc3)c(OC)c2)c1`, the T/C by setting is: under setting [4], 101 % of control; under setting [5], 95 % of control; under setting [6], 97 % of control; under setting [7], 89 % of control.
For `C#CCCCCC#[C][Hg][C]#CCCCCC#C`, the T/C under setting [8] is 94 % of control.
Consider `COc1ccc(-c2ccc(OC)c(OC)c2)cc1OC`, for which the T/C reads like this: under setting [1], 110 % of control; under setting [2], 104 % of control; under setting [3], 110 % of control.
Consider `N#C/C(=C\c1ccc(Cl)cc1)c1ccccc1`, for which the T/C is, setting by setting: (dose: 100.0 mg/kg/injection, schedule: Q04DX003 (ip), vehicle: gum acacia) 100 % of control; (dose: 200.0 mg/kg/injection, schedule: Q04DX003 (ip), vehicle: gum acacia) 102 % of control; (dose: 400.0 mg/kg/injection, schedule: Q04DX003 (ip), vehicle: gum acacia) 109 % of control.
`CN(C)[C@@H]1C(=O)C(C(=O)NCNC(Cc2ccc(N(CCCl)CCCl)cc2)C(=O)O)=C(O)[C@@]2(O)C(=O)C3=C(O)c4c(O)cccc4[C@@](C)(O)[C@H]3C[C@@H]12` (some centres undefined): the T/C by setting is: (dose: 1.3 mg/kg/injection, schedule: Q01DX009 (ip), vehicle: other) 114 % of control; (dose: 4.69 mg/kg/injection, schedule: Q01DX009 (ip), vehicle: saline) 121 % of control; under setting [9], 96 % of control; (dose: 6.6 mg/kg/injection, schedule: Q01DX009 (ip), vehicle: other) 152 % of control; (dose: 9.0 mg/kg/injection, schedule: Q01DX001 (ip), vehicle: saline) 109 % of control; (dose: 10.0 mg/kg/injection, schedule: Q01DX009 (ip), vehicle: other) 173 % of control. In addition, the T/C runs as follows: (dose: 18.0 mg/kg/injection, schedule: Q01DX009 (ip), vehicle: other) 189 % of control; (dose: 18.95 mg/kg/injection, schedule: Q01DX009 (ip), vehicle: saline) 162 % of control; (dose: 19.0 mg/kg/injection, schedule: Q01DX001 (ip), vehicle: saline) 102 % of control; (dose: 30.0 mg/kg/injection, schedule: Q01DX001 (ip), vehicle: other) 156 % of control; (dose: 37.5 mg/kg/injection, schedule: Q01DX009 (ip), vehicle: saline) 166 % of control; (dose: 38.0 mg/kg/injection, schedule: Q01DX001 (ip), vehicle: saline) 123 % of control. For the same compound, the T/C (dose: 44.0 mg/kg/injection, schedule: Q01DX001 (ip), vehicle: other) is 152 % of control and 164 % of control; the T/C (dose: 67.0 mg/kg/injection, schedule: Q01DX001 (ip), vehicle: other) is 173 % of control; the T/C under setting [8] was 122 % of control; the T/C (dose: 75.0 mg/kg/injection, schedule: Q01DX009 (ip), vehicle: saline) was 102 % of control; the T/C (dose: 100.0 mg/kg/injection, schedule: Q01DX001 (ip), vehicle: other) is 191 % of control.
Regarding `NC(=O)NC(=O)NCc1ccccc1`, the T/C was 98 % of control (dose: 100.0 mg/kg/injection, schedule: Q04DX002 (ip), vehicle: Klucel (hydroxypropylcellulose) (HPC)); 94 % of control (dose: 200.0 mg/kg/injection, schedule: Q04DX002 (ip), vehicle: Klucel (hydroxypropylcellulose) (HPC)); 94 % of control (dose: 400.0 mg/kg/injection, schedule: Q04DX002 (ip), vehicle: Klucel (hydroxypropylcellulose) (HPC)).
`O=C1c2ccccc2C(=O)N1c1cc([N+](=O)[O-])cc([N+](=O)[O-])c1O`: the T/C was 98 % of control (dose: 100.0 mg/kg/injection, schedule: Q01DX001 (ip), vehicle: Klucel (hydroxypropylcellulose) (HPC)); 95 % of control (dose: 200.0 mg/kg/injection, schedule: Q01DX001 (ip), vehicle: Klucel (hydroxypropylcellulose) (HPC)); 88 % of control (dose: 400.0 mg/kg/injection, schedule: Q01DX001 (ip), vehicle: Klucel (hydroxypropylcellulose) (HPC)).
For the compound `COc1ccc(CN(CCO)S(C)(=O)=O)cc1`, the T/C reads like this: under setting [10], 91 % of control; (dose: 200.0 mg/kg/injection, schedule: Q01DX009 (ip), vehicle: saline) 96 % of control; under setting [11], 96 % of control; (dose: 400.0 mg/kg/injection, schedule: Q01DX009 (ip), vehicle: saline) 88 % of control; under setting [12], 100 % of control.
`CCNc1nc(Cl)nc(-c2cn(-c3ccccc3)c3ccccc23)n1`: the T/C was 93 % of control under setting [5]; 101 % of control (dose: 100.0 mg/kg/injection, schedule: Q01DX009 (ip), vehicle: saline with Tween-80); 99 % of control under setting [10]; 90 % of control under setting [6]; 92 % of control (dose: 200.0 mg/kg/injection, schedule: Q01DX009 (ip), vehicle: saline with Tween-80); 92 % of control under setting [11]. Further, the T/C is, setting by setting: under setting [7], 88 % of control; under setting [12], 94 % of control.
`Cc1ccc(C)c(N(c2ccccc2N)S(C)(=O)=O)c1`: the T/C under setting [4] was 95 % of control, the T/C under setting [5] was 95 % of control, the T/C under setting [6] was 101 % of control and the T/C under setting [7] is 90 % of control.
Regarding `Cn1nc(SCc2ccccc2)c(=O)n(C(c2ccccc2)c2ccccc2)c1=O`, the T/C is 104 % of control under setting [1] and 93 % of control under setting [2].
Consider `COc1ccc(OC)c(/C=N\NC(=O)c2ccccc2N(C)C)c1`, for which the T/C was 100 % of control (dose: 100.0 mg/kg/injection, schedule: Q04DX002 (ip), vehicle: gum acacia); 90 % of control (dose: 200.0 mg/kg/injection, schedule: Q04DX002 (ip), vehicle: gum acacia); 103 % of control (dose: 400.0 mg/kg/injection, schedule: Q04DX002 (ip), vehicle: gum acacia).
Consider `C1CCC(CCNCCC2CCCCC2)CC1`, for which the T/C is 102 % of control under setting [9]; 102 % of control (dose: 10.0 mg/kg/injection, schedule: Q01DX001 (ip), vehicle: saline); 104 % of control (dose: 20.0 mg/kg/injection, schedule: Q01DX001 (ip), vehicle: saline).
